Assay results: patent US20160296529A1, “AMINOTRIAZOLOPYRIDINE FOR USE IN THE TREATMENT OF INFLAMMATION, AND PHARMACEUTICAL COMPOSITIONS THEREOF” (priority 2012, published 2016)
“And” between values parts separate entries of the source, which are not always exact repeats. Equal values may be shown once. Read-outs that look alike come from different tables or passages of the source.

Tests used:
[1] = target: T1, Recombinant human JAK3 catalytic domain (Homo sapiens, UniProt P52333); assay: JAK3 inhibition assay; format: biochemical
T1 construct: amino acids 795-1124; catalog number 08-046; purchased Carna Biosciences 08-046
Experimental: Recombinant human JAK3 catalytic domain (amino acids 795-1124; catalog number 08-046) was purchased from Carna Biosciences. 0.5 ng JAK3 protein was incubated with 2.5 μg polyGT substrate (Sigma catalog number P0275) in kinase reaction buffer (25 mM Tris pH 7.5, 0.5 mM EGTA, 10 mM MgCl2, 2.5 mM DTT, 0.5 mM Na3VO4, 5 mM b-glycerophosphate, 0.01% Triton X-100, 1 μM non-radioactive ATP, 0.25 μCi ^33P-gamma-ATP (Perkin Elmer, catalog number NEG602K001MC) final concentrations) with or without 5 μL containing test compound or vehicle (DMSO, 1% final concentration), in a total volume of 25 μL, in a polypropylene 96-well plate (Greiner, V-bottom). After 45 min at 30° C., reactions were stopped by adding 25 μL/well of 150 mM phosphoric acid. […] 40 μL/well of Microscint-20 was added, the top of the plates was sealed and readout was performed using the Topcount (Perkin Elmer). Kinase activity was calculated by subtracting counts per min (cpm) obtained in the presence of a positive control inhibitor (10 μM staurosporine) from cpm obtained in the presence of vehicle. The ability of a test compound to inhibit this activity was determined as:
Percentage inhibition=((cpm determined for sample with test compound present−cpm determined for sample with positive control inhibitor) divided by (cpm determined in the presence of vehicle−cpm determined for sample with positive control inhibitor))*100. […]

[2] = system: IL-2-induced STAT5 phosphorylation (JAK1/JAK3 pathway); assay: Human whole blood assay (hWBA), IL-2 stimulation, phospho-STAT5 on CD4+ cells; format: cell-based; settings: 5 different donors
Experimental: A flow cytometry analysis was performed to establish JAK1 over JAK2 compound selectivity ex vivo using human whole blood. Therefore, blood is taken from human volunteers who gave informed consent. Blood is then equilibrated for 30 min at 37° C. under gentle rocking, then aliquoted in Eppendorf tubes. Compound is added at different concentrations and incubated at 37° C. for 30 min under gentle rocking and subsequently stimulated for 20 min at 37° C. under gentle rocking with interleukin 6 (IL-6) for JAK1-dependent pathway stimulation, Interferon alpha (IFNα) for JAK1/TYK2 pathway stimulation, interleukin 2 (IL-2) for JAK1/JAK3 pathway stimulation or GM-CSF for JAK2-dependent pathway stimulation. Phospho-STAT1 (for IL-6- and IFNα-stimulated cells) and phospho-STAT5 (for IL-2- and GM-CSF-stimulated cells) levels are then evaluated using FACS analysis. […]
Cells were then washed once with 1×PBS and analyzed on a FACSCanto II flow cytometer (BD Biosciences).
50,000 total events were counted and Phospho-STAT1 positive cells were measured after gating on CD4+ cells, in the lymphocyte gate for IL-6- and IFNα-stimulated cells. Phospho-STAT5 positive cells were measured after gating on CD4+ cells, in the lymphocyte gate for IL-2-stimulated cells. Phospho-STAT5 positive cells were measured after gating on CD33+ cells. […]

T1 sequence (P52333 795-1124): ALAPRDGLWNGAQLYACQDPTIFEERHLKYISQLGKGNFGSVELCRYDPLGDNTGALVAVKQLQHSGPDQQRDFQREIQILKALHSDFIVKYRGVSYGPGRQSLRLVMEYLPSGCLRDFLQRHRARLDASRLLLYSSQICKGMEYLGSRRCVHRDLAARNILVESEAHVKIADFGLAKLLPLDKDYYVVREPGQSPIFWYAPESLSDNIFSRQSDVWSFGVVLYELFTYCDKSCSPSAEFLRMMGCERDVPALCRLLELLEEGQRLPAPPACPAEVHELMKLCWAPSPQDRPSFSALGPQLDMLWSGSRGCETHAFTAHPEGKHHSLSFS

With `Nc1nc2cccc(-c3ccc(CN4CCS(=O)(=O)CC4)cc3)n2n1` [Formula I, 5-[4-(1,1-Dioxothiomorpholin-4-ylmethyl)-phenyl]-[1,2,4]triazolo[1,5-a]pyridin-2-ylamine] the IC50 ([1]; average, read-out: IC50 (average)) was over 3.61 µM, the IC50 ([1]; individual determinations, read-out: IC50) was 2.5 µM and 3.2 µM and 3.37 µM and > 4 µM (5×) and > 3.33 µM (2×) and 3.94 µM and the IC50 [2] was 19.6 µM.
